# Experimental data reported in patent US5731309A, “Substituted heteroalkyleneamine neurokinin antagonists” (Zeneca Limited, priority 1994, dated 1998).
# Experiments:
# [1] = biological target: T1, human NK2 receptor (Homo sapiens, UniProt P21452); assay: Neurokinin A (NKA) Receptor Binding Assay (Test B); settings: antagonism of NKA binding; human NK2 receptor expressed in MEL cells
# T1 construct: expressed in transfected cells; host or cells: Mouse Erythroleukemia (MEL) cells
# T1 sequence (P21452 1-398): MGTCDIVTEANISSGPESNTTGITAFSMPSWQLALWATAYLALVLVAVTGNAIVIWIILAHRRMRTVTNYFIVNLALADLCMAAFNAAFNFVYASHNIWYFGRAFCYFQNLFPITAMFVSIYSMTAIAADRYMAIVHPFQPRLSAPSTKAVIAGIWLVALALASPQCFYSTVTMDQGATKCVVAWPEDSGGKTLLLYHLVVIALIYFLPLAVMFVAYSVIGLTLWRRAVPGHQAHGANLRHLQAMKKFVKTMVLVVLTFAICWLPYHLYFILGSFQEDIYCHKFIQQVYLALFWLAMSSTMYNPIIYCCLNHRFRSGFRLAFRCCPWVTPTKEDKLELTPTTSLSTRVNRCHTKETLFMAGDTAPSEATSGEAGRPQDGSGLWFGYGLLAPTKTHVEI
# Description: Neurokinin A (NKA) Receptor Binding Assay (Test B)
# [2] = biological target: T2, human NK1 receptor (Homo sapiens, UniProt P25103); assay: SP Receptor Binding Assay (Test A); settings: antagonism of SP binding; human NK1 receptor expressed in MEL cells
# T2 construct: expressed in transfected cells; host or cells: Mouse Erythroleukemia (MEL) cells
# Description: SP Receptor Binding Assay (Test A)
# The human NK1 receptor was isolated and characterized as described in: B. Hopkins, et al. "Isolation and characterization of the human lung NK1 receptor cDNA" Biochem. Biophys. Res. Comm., 1991, 180, 1110-1117; and the NK1 receptor was expressed in Mouse Erythroleukemia (MEL) cells using a procedure similar to that described in Test B below.
# [3] = biological target: T3, NK1 receptor (Oryctolagus cuniculus, UniProt G1SEI7); assay: Rabbit Pulmonary Artery: NK1 in vitro functional assay (Test C); set-up: species or system rabbit (male New Zealand white); settings: -log molar KB, agonist ASMSP, read-out: pKB in Test C (converted)
# T3 construct: The left and right branches of the pulmonary artery are isolated from the rest of the lung tissue; from tissue; host or cells: rabbit (male New Zealand white) pulmonary artery ring segments with intact endothelium
# Protocol: Rabbit Pulmonary Artery: NK1 in vitro functional assay (Test C)
# Male New Zealand white rabbits are killed by lethal injection (Nembutal, 60 mg/kg into a cannulated ear vein). Heparin, 0.0025 ml/kg of a 1000 U/ml solution, is injected into the ear vein prior to nembutal in order to decrease blood coagulation. The left and right branches of the pulmonary artery are isolated from the rest of the lung tissue and cut in half to provide four ring segments from each animal. […] Changes in tension are measured on a Grass polygraph via Grass FT-03 force transducers. […]
# Potencies of the compounds are determined by calculating the apparent dissociation constants (KB) for each concentration tested using the standard equation: […]
# where dose ratio=antilog[(agonist-log molar EC50 without compound)-(agonist-log molar EC50 with compound)]. The KB values are converted to the negative logarithms and expressed as -log molar KB (i.e. pKB). […] The EC50 values are converted to negative logarithms and expressed as -log molar EC50. Maximum relaxation responses to ASMSP are determined by expressing the maximum response to the agonist as a percentage of the relaxation caused by papaverine.
# [4] = biological target: T4, NK2 receptor (Cavia porcellus, UniProt Q64077); assay: Guinea Pig Trachea Assay: NK2 in vitro functional assay (Test D); settings: -log molar KB, agonist BANK, read-out: pKB in Test D (converted)
# T4 construct: The trachea are removed, trimmed of excess tissue (including removal of epithelium) and cut in spiral fashion; from tissue; host or cells: guinea pig trachea strips, epithelium removed
# T4 sequence (Q64077 1-402): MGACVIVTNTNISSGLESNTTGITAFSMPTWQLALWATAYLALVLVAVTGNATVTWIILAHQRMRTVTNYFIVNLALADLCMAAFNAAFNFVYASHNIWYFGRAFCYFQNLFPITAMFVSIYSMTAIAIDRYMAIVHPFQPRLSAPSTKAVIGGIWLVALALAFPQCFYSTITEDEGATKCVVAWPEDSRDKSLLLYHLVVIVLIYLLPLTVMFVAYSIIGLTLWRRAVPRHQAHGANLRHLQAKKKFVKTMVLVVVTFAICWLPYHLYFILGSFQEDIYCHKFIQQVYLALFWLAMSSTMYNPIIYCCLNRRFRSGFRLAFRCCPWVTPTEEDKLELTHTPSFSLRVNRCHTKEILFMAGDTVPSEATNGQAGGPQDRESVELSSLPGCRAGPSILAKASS
# Protocol: Guinea Pig Trachea Assay: NK2 in vitro functional assay (Test D)
# Male guinea pigs are killed by a sharp blow to the back of the head followed by exsanguination. The trachea are removed, trimmed of excess tissue (including removal of epithelium) and cut in spiral fashion. Each longitudinally cut tracheal segment is suspended as a strip in a water-jacketed (37.5° C.) tissue bath containing a physiological salt solution of the following composition (mM): NaCl, 119; KCl 4.6; CaCl2, 1.8; MgCl2, 0.5; NaH2 PO4, 1; NaHCO3, 25; glucose, 11; and indomethacin, 0.005 (to inhibit cyclooxygenase); gassed continuously with 95% O2-%5 CO2. […] Contractile responses are measured on a Grass polygraph via Grass FT-03 force transducers. […]
# Potencies of the compounds are evaluated by calculating apparent dissociation constants (KB) for each concentration tested using the standard equation: […]
# where dose ratio=antilog[(agonist -log molar EC50 without compound)-(agonist-log molar EC50 with compound)]. The KB values are converted to the negative logarithms and expressed as -log molar KB (i.e. pKB). […] The EC50 values are converted to the negative logarithms and expressed as -log molar EC50. Maximum contractile responses to BANK are determined by expressing the maximum response to BANK as a percentage of the initial contraction caused by capasacin.
# T2 sequence (P25103 whole entry): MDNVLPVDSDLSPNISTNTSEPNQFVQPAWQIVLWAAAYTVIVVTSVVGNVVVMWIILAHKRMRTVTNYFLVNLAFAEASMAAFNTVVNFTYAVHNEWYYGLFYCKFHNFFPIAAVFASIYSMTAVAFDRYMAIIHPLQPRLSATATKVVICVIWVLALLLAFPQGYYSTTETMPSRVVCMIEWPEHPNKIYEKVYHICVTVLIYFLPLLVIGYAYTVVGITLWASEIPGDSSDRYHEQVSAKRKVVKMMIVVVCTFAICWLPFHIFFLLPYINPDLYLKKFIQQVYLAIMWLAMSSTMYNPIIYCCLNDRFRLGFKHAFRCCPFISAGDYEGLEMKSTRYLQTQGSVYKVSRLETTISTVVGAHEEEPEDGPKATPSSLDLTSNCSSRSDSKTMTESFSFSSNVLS
# T3 sequence (G1SEI7 1-407): as the sequence (P25103 whole entry) above, with S12F, N189D, P369A, D371E, T376N, C386G, D391N, S402Y, V405M counted along it
Ki [1],Ki [2],Kb [3],Kb [4],Structure (SMILES)
13 nM,430 nM,–,–,"CC(=O)NC1(c2ccccc2)CCN(CCC(CNCCc2ccccc2)c2ccc(Cl)c(Cl)c2)CC1 (stereo not shown) [Example 3, 4-(4-acetamido-4-phenylpiperidino)-2-(3,4-dichlorophenyl)-N-(phenethyl)butylamine]"
–,–,955 nM,3160 nM,"CC(=O)NC1(c2ccccc2)CCN(CCC(CN(Cc2cc(C(F)(F)F)cc(C(F)(F)F)c2)C(C)=O)c2ccc(Cl)c(Cl)c2)CC1 (stereo not shown) [Example 10, 4-(4-Acetamido-4-phenylpiperidino)-N-acetyl-2-(3,4-dichlorophenyl)-N-[3,5-bis(trifluoromethyl)benzyl]butylamine]"
